Series [1] concerns Rattus norvegicus. As to the kind of experiment: AUC (0 to 24 hrs) in Hanover Wistar rat assessed as 5-(6-chloro-2-fluoro-3-((5-methyl-6-oxo-1,6-dihydropyridazin-3-yl)methyl)phenoxy)isophthalonitrile level at 50 mg/kg, po. As to conditions: in vivo. Details: unit not given here.
Series [2] deals with Rattus norvegicus. As to the kind of experiment: Tmax in Hanover Wistar rat assessed as 5-(6-chloro-2-fluoro-3-((5-methyl-6-oxo-1,6-dihydropyridazin-3-yl)methyl)phenoxy)isophthalonitrile level at 50 mg/kg, po. The note with it: in vivo. More on the design: dose 50 mg/kg, route oral. The format is ADME, organism-based.
Series [3] is described as follows: Aqueous stability assessed as half life at pH 6.5. The format is physicochemical.
The nature of series [4]: Aqueous stability assessed as half life at pH 2. The series is classed as physicochemical.
Series [5] has as its system Rattus norvegicus. As to the kind of experiment: Cmax in Hanover Wistar rat assessed as 5-(6-chloro-2-fluoro-3-((5-methyl-6-oxo-1,6-dihydropyridazin-3-yl)methyl)phenoxy)isophthalonitrile level at 50 mg/kg, po. The note with it: in vivo. Details: dose 50 mg/kg, route oral. The series is classed as ADME, organism-based.
A short description of series [6]: Cmax in Hanover Wistar rat at 5 mg/kg, po. The format is ADME, organism-based. Details: dose 5 mg/kg, route oral. The note with it: in vivo.
The test system of series [7] is Rattus norvegicus. As to the kind of experiment: AUC (0 to 24 hrs) in Hanover Wistar rat at 50 mg/kg, po. As to conditions: in vivo.
Series [8] can be described thus: Tmax in Hanover Wistar rat at 50 mg/kg, po. The format is ADME, organism-based. Details: dose 50 mg/kg, route oral. The note with it: in vivo.
Series [9] is described as follows: Aqueous solubility at pH 6.5. The series is classed as physicochemical.
The nature of series [10]: Dissociation constant, pKa of the compound. The format is physicochemical.
A short description of series [11]: Tmax in Hanover Wistar rat at 5 mg/kg, po. The format is ADME, organism-based. Details: dose 5 mg/kg, route oral. The note with it: in vivo.
A short description of series [12]: Permeability across human Caco-2 cells. As to conditions: read-out: permeability. The series is classed as ADME, cell-based.
For series [13], the system named is Rattus norvegicus. Kind of series: AUC (0 to 24 hrs) in Hanover Wistar rat at 5 mg/kg, po. The note with it: in vivo.
Series [14] is described as follows: Cmax in Hanover Wistar rat at 50 mg/kg, po. Details: dose 50 mg/kg, route oral. The series is classed as ADME, organism-based. The note with it: in vivo.

Values after ≈ are worked out from the molar mass of the structure shown. Some results are limits rather than exact numbers.

From ChEMBL document CHEMBL1141016, “Orally bioavailable prodrugs of a BCS class 2 molecule, an inhibitor of HIV-1 reverse transcriptase” (Bioorg Med Chem Lett, 2008) come the findings set out here.

The term Tmax denotes the time at which the peak concentration occurs. The term half-life denotes how long it takes for the measured level to halve. The term Cmax denotes the peak of the concentration-time curve. As usually defined, the solubility is the dissolved amount per volume that the medium holds. Usually pKa stands for the pH at which an ionisable group is half protonated.

Take `Cc1cc(Cc2ccc(Cl)c(Oc3cc(C#N)cc(C#N)c3)c2F)nn(COC(=O)OCCN2CCOCC2)c1=O.Cl`: in [1], the AUC amounted to 89. For the same compound, the Tmax in series [2] was 3.3 h. Besides, the half-life was 3.5 h in series [3] and 301 h in [4]. The maximum concentration (Cmax) in series [5] was 5.6 µM.

For `Cc1cc(Cc2ccc(Cl)c(Oc3cc(C#N)cc(C#N)c3)c2F)nn(COC(=O)CN)c1=O.Cl`, the AUC in [1] is given as 93. Further, the Tmax in [2] was found to be 4 h. The half-life was 1 h in [3] and 38 h in [4]. Also, the Cmax in series [5] came to 6.3 µM.

Turning to `Cc1cc(Cc2ccc(Cl)c(Oc3cc(C#N)cc(C#N)c3)c2F)nn(COC(=O)[C@@H](N)C(C)C)c1=O.Cl`, the AUC in [1] came out at 134. Besides, the time to peak (Tmax) in series [2] turned out to be 4 h. Further, the half-life is 3.2 h in series [3] and 1420 h in [4]. Besides, the Cmax in series [5] came to 9.1 µM.

For `Cc1cc(Cc2ccc(Cl)c(Oc3cc(C#N)cc(C#N)c3)c2F)nn(COC(=O)c2cccnc2)c1=O.Cl`, in series [1], the AUC is recorded as 101. The Tmax in [2] came out at 4.7 h. In addition, the half-life is 4.7 h in [3] and 10 h in series [4]. Also, the Cmax in [5] is 8.8 µM.

With `Cc1cc(Cc2ccc(Cl)c(Oc3cc(C#N)cc(C#N)c3)c2F)nn(COC(=O)[C@@H]2CCCN2)c1=O.Cl`, the AUC in [1] stood at 108. In addition, in [2], the time of peak concentration (Tmax) was 4.7 h. For the same compound, the half-life was less than 0.3 h in series [3] and 17 h in series [4]. The Cmax in series [5] was determined as 7.3 µM.

In the case of `Cc1cc(Cc2ccc(Cl)c(Oc3cc(C#N)cc(C#N)c3)c2F)nn(COC(=O)CCC(=O)O)c1=O`, the AUC in series [1] amounted to 142. Besides, in [2], the Tmax turned out to be 2.7 h. Also, the values for the half-life in series [3] and in series [4] were 40 h and 462 h, respectively. Moreover, the Cmax in [5] was 13.2 µM.

Take `Cc1cc(Cc2ccc(Cl)c(Oc3cc(C#N)cc(C#N)c3)c2F)nn(COP(=O)([O-])[O-])c1=O.[Na+].[Na+]`: in series [1], the AUC came out at 178. In series [2], the Tmax stood at 8 h. The half-life in series [3] and in series [4] was more than 24 h in each case. The Cmax in series [5] is 12.7 µM.

As for `Cc1cc(Cc2ccc(Cl)c(Oc3cc(C#N)cc(C#N)c3)c2F)nn(COC(=O)OCCN(C)C)c1=O.Cl`, the AUC in [1] turned out to be 108. Moreover, the Tmax in [2] worked out at 2 h. The half-life was 0.9 h in [3] and 289 h in series [4]. Besides, the Cmax in series [5] was determined as 7.3 µM.

For `Cc1cc(Cc2ccc(Cl)c(Oc3cc(C#N)cc(C#N)c3)c2F)n[nH]c1=O`, the Cmax amounted to 0.96 µM in [6] and 1.5 µM in series [14]. Further, the AUC came to 20.3 uM.hr/ml in series [7] and 6.8 uM.hr/ml in [13]. Moreover, the Tmax worked out at 3.3 h in series [8] and 3.7 h in series [11]. The compound further displayed a solubility in series [9] of 0.3 µg/mL (≈ 0.76 µM). Moreover, the pKa in [10] worked out at 10.5. The Papp in series [12] came to 19 ×10⁻⁶ cm/s.
